Experimental data: ChEMBL document CHEMBL1152694, “Synthetic medicinal chemistry of selected antimalarial natural products” (Bioorg Med Chem, 2009)

Key:
[1] = test system: Plasmodium berghei; assay: Antimalarial activity against Plasmodium berghei infected mice (Mus musculus); assay type: functional
[2] = Selectivity ratio of cytotoxicity to human KB cells to antimalarial activity against Plasmodium falciparum; assay type: cell-based

SMILES	ED50 [1]	selectivity ratio [2]
CC1(C)[C@@H](n2cnc3ccccc3c2=O)C(=O)C[C@@H]2[C@@H](O)CCCN21	6 µmol/kg	–
CC1(C)[C@H](n2cnc3ccccc3c2=O)CC[C@H]2[C@@H](O)CCCN21	145 µmol/kg	–
CC[C@](C)(O)C(=O)O[C@H]1C(=O)O[C@@H]2C[C@H]3C(C)=CC(=O)[C@@H](O)[C@]3(C)[C@H]3[C@@]4(O)OC[C@]32[C@@H]1[C@@H](C)[C@H]4O [GLAUCARUBINONE]	–	285
